The results in this text go back to patent US20250250287A1, “HETEROCYCLIC COMPOUNDS, COMPOSITIONS THEREOF, AND METHODS OF TREATMENT THEREWITH” (BeiGene Switzerland GmbH, priority 2022, published 2025).

For the test, the system named is pERK1/2(THR202/TYR204) level in SW620 cell line (KRAS G12V). The test can be described thus: KRAS G12V pERK assay (HTRF) in SW620 cell line. The format is cell-based. Particulars: SW620 cells, 2 hrs compound treatment. The method, then:
SW620 cell line was used in this study. Cells were maintained in RPMI 1640 supplemented with 10% fetal bovine serum (Thermo Fisher), 50 units/mL penicillin and streptomycin (Thermo Fisher) and kept at 37° C. in a humidified atmosphere of 5% CO2 in air. Cells were reinstated from frozen stocks that were laid down within 30 passages from the original cells purchased. 40000 cells per well were seeded into a 96-well plate and incubated overnight. Cells were treated with a 10-point dilution series. The final compound concentration is from 0 to 10 μM. After 2 hrs compound treatment, cells were lysed, and the pERK1/2(THR202/TYR204) level in the cell lysates was detected by HTRF kit (Cisbio). In brief, a total of 16 μL of cell lysate from each well of a 96-well plate was transferred to a 384-well white assay plate. Lysate from each well was incubated with 2 μL of Eu3+-cryptate (donor) labeled anti-phospho-ERK1/2 and 2 μL of D2 (acceptor) labeled anti-phospho-ERK1/2 antibodies (Cisbio) overnight in dark at room temperature. When donor and acceptor are in close proximity, excitation of the donor with laser triggers a Fluorescence Resonance Energy Transfer (FRET) towards the acceptor, which in turn fluoresces at 655 nm wavelength. FRET signals were measured using a PHERAstar FSX reader (BMG Labtech). IC50 determination was performed by fitting the curve of percent inhibition versus the log of the inhibitor concentration using Dotmatics.

Take `N#Cc1c(N)sc2c(F)ccc(-c3c(Cl)c4c5c(nc(OC[C@@]67CCCN6C[C@H](F)C7)nc5c3F)N3CCC(C#N)C[C@H]3CO4)c12` (stereo partly drawn) [Example 30, (8aS)-5-(2-amino-3-cyano-7-fluorobenzo[b]thiophen-4-yl)-6-chloro-4-fluoro-2-(((2R,7aS)-2-fluorotetrahydro-1H-pyrrolizin-7a(5H)-yl)methoxy)-8,8a,9,10,11,12-hexahydropyrido[2′,1′:3,4][1,4]oxazepino[5,6,7-de]quinazoline-10-carbonitrile]: half-maximal inhibition (Homo sapiens, SW-620, 2 h) (IC50) was put at 51 nM.

As for `Nc1cc(Cl)c(C(F)(F)F)c(-c2nc3c4c(nc(OC[C@@]56CCCN5C[C@H](F)C6)nc4c2F)N2CC[C@@H]2CCO3)c1` [Example 23, 3-chloro-5-((R)-6-fluoro-4-(((2R,7aS)-2-fluorotetrahydro-1H-pyrrolizin-7a(5H)-yl)methoxy)-1,10,11,11a-tetrahydro-2H-9-oxa-2a,3,5,8-tetraazacyclobuta[4,5]cycloocta[1,2,3-de]naphthalen-7-yl)-4-(trifluoromethyl)aniline], half-maximal inhibition (Homo sapiens, SW-620, 2 h) (IC50) required 73 nM.

`C#Cc1c(F)ccc2cc(O)cc(-c3nc4c5c(nc(OC[C@@]67CCCN6C[C@H](F)C7)nc5c3F)N3[C@H](CO4)C[C@@H]4C[C@@H]43)c12` [Example 32, 5-ethynyl-6-fluoro-4-((5aS,6aS,7aS)-1-fluoro-9-(((2R,7aS)-2-fluorotetrahydro-1H-pyrrolizin-7a(5H)-yl)methoxy)-5,5a,6,6a,7,7a-hexahydro-4-oxa-3,7b,8,10-tetraazacyclopropa[a]naphtho[1,8-gh]azulen-2-yl)naphthalen-2-ol] registered an IC50 (Homo sapiens, SW-620, 2 h) of 26 nM.

For the setting “Homo sapiens, SW-620, 2 h”, `Nc1cc(Cl)c(C(F)(F)F)c(-c2nc3c4c(nc(OC[C@@]56CCCN5C[C@H](F)C6)nc4c2F)N2CCCCCC2CO3)c1` (stereo partly drawn) [Example 25, 3-chloro-5-(1-fluoro-12-(((2R,7aS)-2-fluorotetrahydro-1H-pyrrolizin-7a(5H)-yl)methoxy)-5a,6,7,8,9,10-hexahydro-5H-4-oxa-3,10a,11,13-tetraazanaphtho[1,8-ab]heptalen-2-yl)-4-(trifluoromethyl)aniline] gave an IC50 of 53 nM.

As for `N#Cc1c(N)sc2c(F)ccc(-c3cc4c5c(nc(OC[C@@]67CCCN6C[C@H](F)C7)nc5c3F)N3CCC[C@@H]3CCO4)c12` [Example 5, 2-amino-7-fluoro-4-((R)-8-fluoro-6-(((2R,7aS)-2-fluorotetrahydro-1H-pyrrolizin-7a(5H)-yl)methoxy)-1,2,3,12,13,13a-hexahydropyrrolo[1′,2′:5,6][1,5]oxazocino[4,3,2-de]quinazolin-9-yl)benzo[b]thiophene-3-carbonitrile], the midpoint of inhibition (Homo sapiens, SW-620, 2 h), the IC50, lay at 668 nM.

On to “3-chloro-5-(1-fluoro-12-(((2R,7aS)-2-fluorotetrahydro-1H-pyrrolizin-7a(5H)-yl)methoxy)-6,6a,7,8,9,10-hexahydro-5H-4-oxa-3,10a,11,13-tetraazabenzo[4,5]cycloocta[1,2,3-de]naphthalen-2-yl)-4-(trifluoromethyl)aniline [Example 8]”, for which inhibition was half-maximal at 290 nM (IC50).

In the case of `C#Cc1c(F)ccc2cc(O)cc(-c3nc4c5c(nc(OCC67CCCN6CC(F)C7)nc5c3F)N3CCC3CO4)c12` (single isomer, unassigned) [Example 20], the IC50 turned out to be 40 nM.

Compound `C#Cc1c(F)ccc2cc(O)cc(-c3nc4c5c(nc(OC[C@@]67CCCN6C[C@H](F)C7)nc5c3F)N3CCC[C@H]3CO4)c12` [Example 10, 5-ethynyl-6-fluoro-4-((S)-7-fluoro-5-(((2R,7aS)-2-fluorotetrahydro-1H-pyrrolizin-7a(5H)-yl)methoxy)-2,3,11,11a-tetrahydro-1H-10-oxa-3a,4,6,9-tetraazanaphtho[1,8-ef]azulen-8-yl)naphthalen-2-ol] came in with an IC50 (Homo sapiens, SW-620, 2 h) of 43 nM.

`Nc1cc(Cl)c(C(F)(F)F)c(-c2nc3c4c(nc(OC[C@@]56CCCN5C[C@H](F)C6)nc4c2F)N2CCC(F)C2CO3)c1` (stereo partly drawn) [Example 17, 3-chloro-5-(1,7-difluoro-5-(((2R,7aS)-2-fluorotetrahydro-1H-pyrrolizin-7a(5H)-yl)methoxy)-2,3,11,11a-tetrahydro-1H-10-oxa-3a,4,6,9-tetraazanaphtho[1,8-ef]azulen-8-yl)-4-(trifluoromethyl)aniline] returned an IC50 (Homo sapiens, SW-620, 2 h) of 509 nM.

Consider `Nc1cc(Cl)c(C(F)(F)F)c(-c2nc3c4c(nc(OC[C@@]56CCCN5C[C@H](F)C6)nc4c2F)N2CCC[C@@H]2CCO3)c1` [Example 11, 3-chloro-5-((R)-7-fluoro-5-(((2R,7aS)-2-fluorotetrahydro-1H-pyrrolizin-7a(5H)-yl)methoxy)-1,2,3,11,12,12a-hexahydro-10-oxa-3a,4,6,9-tetraazacyclopenta[4,5]cycloocta[1,2,3-de]naphthalen-8-yl)-4-(trifluoromethyl)aniline], for which half-maximal inhibition (Homo sapiens, SW-620, 2 h) (IC50) required 66 nM.

On to `C#Cc1c(F)ccc2cc(O)cc(-c3nc4c5c(nc(OC[C@@]67CCCN6C[C@H](F)C7)nc5c3F)N3C[C@H](F)C[C@H]3CO4)c12` [Example 19, 4-((2R,11aS)-2,7-difluoro-5-(((2R,7aS)-2-fluorotetrahydro-1H-pyrrolizin-7a(5H)-yl)methoxy)-2,3,11,11a-tetrahydro-1H-10-oxa-3a,4,6,9-tetraazanaphtho[1,8-ef]azulen-8-yl)-5-ethynyl-6-fluoronaphthalen-2-ol], for which, where the note is “Homo sapiens, SW-620, 2 h”, the IC50 was 112 nM.

On to `C#Cc1c(F)ccc2cc(O)cc(-c3nc4c5c(nc(OC[C@@]67CCCN6C[C@H](F)C7)nc5c3F)N3CCCCCC3CO4)c12` (stereo partly drawn) [Example 26, 5-ethynyl-6-fluoro-4-(1-fluoro-12-(((2R,7aS)-2-fluorotetrahydro-1H-pyrrolizin-7a(5H)-yl)methoxy)-5a,6,7,8,9,10-hexahydro-5H-4-oxa-3,10a,11,13-tetraazanaphtho[1,8-ab]heptalen-2-yl)naphthalen-2-ol], for which inhibition (Homo sapiens, SW-620, 2 h) was half-maximal at 9.3 nM (IC50).

For the setting “Homo sapiens, SW-620, 2 h”, `CC1Oc2nc(-c3cc(N)cc(Cl)c3C(F)(F)F)c(F)c3nc(OC[C@@]45CCCN4C[C@H](F)C5)nc(c23)N2CCC[C@@H]12` (stereo partly drawn) [Example 24, 3-chloro-5-((11aS)-7-fluoro-5-(((2R,7aS)-2-fluorotetrahydro-1H-pyrrolizin-7a(5H)-yl)methoxy)-11-methyl-2,3,11,11a-tetrahydro-1H-10-oxa-3a,4,6,9-tetraazanaphtho[1,8-ef]azulen-8-yl)-4-(trifluoromethyl)aniline] gave an IC50 of 121 nM.

`C#Cc1c(F)ccc2cc(O)cc(-c3nc4c5c(nc(OC[C@@]67CCCN6C[C@H](F)C7)nc5c3F)N3CCCC[C@H]3[C@H](C)O4)c12` [Example 34, 5-ethynyl-6-fluoro-4-((5S,5aS)-1-fluoro-11-(((2R,7aS)-2-fluorotetrahydro-1H-pyrrolizin-7a(5H)-yl)methoxy)-5-methyl-5,5a,6,7,8,9-hexahydro-4-oxa-3,9a,10,12-tetraazabenzo[4,5]cyclohepta[1,2,3-de]naphthalen-2-yl)naphthalen-2-ol]: the IC50 (Homo sapiens, SW-620, 2 h) was determined as 10 nM.

Regarding `N#Cc1c(N)sc2c(F)ccc(-c3c(Cl)c4c5c(nc(OC[C@@]67CCCN6C[C@H](F)C7)nc5c3F)N3C[C@H](O)C[C@H]3CO4)c12` [Example 29, 2-amino-4-((2R,12aS)-10-chloro-8-fluoro-6-(((2R,7aS)-2-fluorotetrahydro-1H-pyrrolizin-7a(5H)-yl)methoxy)-2-hydroxy-2,3,12,12a-tetrahydro-1H-pyrrolo[2′,1′:3,4][1,4]oxazepino[5,6,7-de]quinazolin-9-yl)-7-fluorobenzo[b]thiophene-3-carbonitrile], 91 nM corresponded to half-maximal inhibition (Homo sapiens, SW-620, 2 h) (IC50).

For the setting “Homo sapiens, SW-620, 2 h”, `C[C@@H]1Oc2nc(-c3cc(N)cc(Cl)c3C(F)(F)F)c(F)c3nc(OC[C@@]45CCCN4C[C@H](F)C5)nc(c23)N2CCCC[C@@H]12` [Example 33, 3-chloro-5-((5S,5aS)-1-fluoro-11-(((2R,7aS)-2-fluorotetrahydro-1H-pyrrolizin-7a(5H)-yl)methoxy)-5-methyl-5,5a,6,7,8,9-hexahydro-4-oxa-3,9a,10,12-tetraazabenzo[4,5]cyclohepta[1,2,3-de]naphthalen-2-yl)-4-(trifluoromethyl)aniline] had an IC50 of 43 nM.

`Nc1cc(Cl)c(C(F)(F)F)c(-c2nc3c4c(nc(OC[C@@]56CCCN5C[C@H](F)C6)nc4c2F)N2CCC[C@@H]2CO3)c1` [Example 13, 3-chloro-5-((R)-7-fluoro-5-(((2R,7aS)-2-fluorotetrahydro-1H-pyrrolizin-7a(5H)-yl)methoxy)-2,3,11,11a-tetrahydro-1H-10-oxa-3a,4,6,9-tetraazanaphtho[1,8-ef]azulen-8-yl)-4-(trifluoromethyl)aniline] gave an IC50 (Homo sapiens, SW-620, 2 h) of 648 nM.

Take `Nc1cc(Cl)c(C(F)(F)F)c(-c2nc3c4c(nc(OC[C@@]56CCCN5C[C@H](F)C6)nc4c2F)N2CCCC[C@H]2CO3)c1` [Example 15, 3-chloro-5-((S)-1-fluoro-11-(((2R,7aS)-2-fluorotetrahydro-1H-pyrrolizin-7a(5H)-yl)methoxy)-5,5a,6,7,8,9-hexahydro-4-oxa-3,9a,10,12-tetraazabenzo[4,5]cyclohepta[1,2,3-de]naphthalen-2-yl)-4-(trifluoromethyl)aniline]: the IC50 (Homo sapiens, SW-620, 2 h) was determined as 187 nM.

The compound `N#Cc1c(N)sc2c(F)ccc(-c3cc4c5c(nc(OC[C@@]67CCCN6C[C@H](F)C7)nc5c3F)N3CCC[C@H]3CO4)c12` [Example 1, 2-amino-7-fluoro-4-((S)-4-fluoro-2-(((2R,7aS)-2-fluorotetrahydro-1H-pyrrolizin-7a(5H)-yl)methoxy)-8a,9,10,11-tetrahydro-8H-pyrrolo[2′,1′:3,4][1,4]oxazepino[5,6,7-de]quinazolin-5-yl)benzo[b]thiophene-3-carbonitrile] had an IC50 (Homo sapiens, SW-620, 2 h) of 290 nM.
